Test results: patent US9220794B2, “Two-photon fluorescent probes for imaging of total sulfide in live cell and tissue, and quantitative estimation of total sulfide concentration using the same” (Korea University Research and Business Foundation, priority 2013, dated 2015)

Experiments:
HeLa cells = assay: Photostability of TPEF intensity in labeled HeLa cells; type: cell-based, human; details: continuous radiation of fs-pulses for 60 minutes
Description: These findings confirm that the compound of [Chemical Formula 2-6] can measure the total sulfide concentration in living cells by the kinetic method with minimum interference from cytotoxicity and photostability.

[1] = One-photon absorption and emission spectra, fluorescence quantum yield; type: physicochemical; details: for 10^−4 ε: value is ε×10^−4
Protocol: The solvatochromic effect observed for the compound of [Chemical Formula 2-6] may have resulted from the […] dipole moment.
Absorption spectra were recorded on the Hewlett-Packard 8453 diode array spectrophotometer and fluorescence spectra were obtained with the Amico-Bowman series 2 luminescence spectrometer with a 1-cm standard quartz cell.

[2] = Measurement of two-photon cross section (fs fluorescence technique, rhodamine 6G reference); type: physicochemical; details: for Φδmax, two-photon action cross section: uncertainty ±15%
Protocol: Two-photon cross section (δ) was determined using a femtosecond (fs) fluorescence measurement technique.
The compound of [Chemical Formula 2-5] and the compound of [Chemical Formula 2-6] were dissolved in 20 mM HEPES buffer (pH 7.2) and 3.0×10^−6 M HEPES/EtOH (1/1) and then two-photon induced fluorescence intensity was measured at 740-940 nm using rhodamine 6G as a reference, whose two-photon property has been well characterized. The two-photon fluorescence intensities of the reference and the compound of [Chemical Formula 2-6] and the compound of [Chemical Formula 2-5] were determined.
The two-photon cross section was calculated from δ=δr(Ssφrφrcr)/(Srφsφscs). In the equation, the subscripts s and r stand for the sample, i.e., the compound of [Chemical Formula 2-6] and the compound of […], respectively. S denotes the intensity of the signal collected using a CCD detector, φ is the fluorescence quantum yield (measured using coumarin 307 and rhodamine B according to the literature), […] fluorescence collection efficiency, and c is the number density of molecules in solution. δr is the two-photon cross section of the reference molecule.

rat colon tissue = assay: Ratiometric TPM imaging (F2/F1) of rat colon slices; type: in vivo; details: basal, slices labeled with 20 μM 2-6
Protocol: The utility of the compound of [Chemical Formula 2-6] was investigated in living tissues from a 5-week-old rat colon. The inventors were particularly interested in the mucosa, muscularis mucosae and submucosa because they are invaded in the early stage of tumor (FIG. 4c). Since it takes a long time to stain the tissues during which they may be deformed, excess amount (20 μM) of the compound of [Chemical Formula 2-6] was used to facilitate staining.
Because the structure of the colon tissue is heterogeneous, TPEF intensities were acquired from 150 sections along the z-direction at a depth of about 90-170 μm using two detection windows (1 and 2) to visualize the overall sulfide distribution.
Therefore, the sections were divided into two regions and they were assigned as mucosa (90-150 μm) and submucosa including the muscularis mucosae (151-170 μm).
Male Sprague-Dawley rats (235-265 g) were divided into two groups (5-FU and control groups). In the 5-FU group, 150 mg/kg of 5-FU (SoloPak Laboratories, Franklin Park, Ill.) were intraperitoneally injected into the rats. The rats of the control group were injected with saline. Each group consisted of 4 rats.
All the rats were injected between 9 pm and 12 midnight, were allowed free access to food and water and were housed in the same room with 8-hour cycles.
8 hours after the intraperitoneal injection, all the rats were sacrificed. Laparotomy was performed after anesthetizing the rats.
Slices were prepared from the colon of the rats. The colon slices were cut into 2-cm long segments, opened by longitudinal incision and then treated with Dulbecco's phosphate-buffered saline (D-PBS; […]).
The colon slices were incubated with the compound of [Chemical Formula 2-6] (20 μM) in D-PBS bubbled with 95% O2 and 5% CO2 at 37° C. The colon slices were then moved to glass-bottomed dishes, washed 3 times with D-PBS and observed under a confocal multiphoton microscope.
TPEF intensities were collected using detection windows of 390-450 nm and 520-650 nm, with 110 sections at a depth of 90-150 μm (mucosa) and 40 sections at a depth of 151-170 μm (submucosa).
Then ratiometric images were constructed from the TPEF intensities collected using the two detection window. The F2/F1 ratio was expressed as mean±SD and p was set to be smaller than 0.05.

[3] = HEPES buffer (20 mM HEPES, 100 mM KCl, pH 7.4)

- photostability (decay of TPEF intensity) (HeLa cells): high photostability
- Δλmax, shift of absorption spectrum with solvent polarity ([1]; 1,4-dioxane to HEPES buffer): 8 nm
- Δλ^FImax, shift of emission spectrum with solvent polarity ([1]; 1,4-dioxane<DMF<EtOH<HEPES/EtOH (1/1)<HEPES buffer): 31 nm
- Φ, fluorescence quantum yield ([1]; EtOH): 0.87
- λ^(1)max, one-photon absorption maximum ([1]; EtOH): 354 nm
- λ^flmax, one-photon emission maximum ([1]; EtOH): 437 nm
- 10^−4 ε ([1]; EtOH): (4.27) M^−1cm^−1
- Φ, fluorescence quantum yield ([1]; HEPES buffer): 0.013
- λ^(1)max, one-photon absorption maximum [1, 3]: 360 nm
- λ^flmax, one-photon emission maximum [1, 3]: 444 nm
- ε at maximum absorption ([1]; HEPES buffer, pH 7.4): 25000 M⁻¹ cm⁻¹
- Φ, fluorescence quantum yield ([1]; HEPES/EtOH (1/1)): 0.41
- λ^(1)max, one-photon absorption maximum ([1]; HEPES/EtOH (1/1)): 352 nm
- λ^flmax, one-photon emission maximum ([1]; HEPES/EtOH (1/1)): 440 nm
- 10^−4 ε ([1]; HEPES/EtOH (1/1)): (4.11) M^−1cm^−1
- 10^−4 ε ([1]; HEPES): (2.50) M^−1cm^−1
- λ^(2)max, two-photon maximum ([2]; HEPES): 740 nm
- Φδmax, two-photon action cross section ([2]; HEPES buffer, 2-6 at 740 nm, 2-5 at 750 nm): 0.67 GM
- λ^(2)max, two-photon maximum ([2]; HEPES/EtOH (1/1)): 740 nm
- increase of action cross section (φδ) in HEPES/EtOH (1/1) versus HEPES buffer ([2]; HEPES/EtOH (1/1) vs HEPES buffer): 12 fold
- Φδmax, two-photon action cross section ([2]; HEPES/EtOH (1/1), GM = 10^−50 cm^4s/photon): 12 GM
SMILES: COCCOCCC1(CCOCCOC)c2cc(NC(=O)OCc3ccc(N=[N+]=[N-])cc3)ccc2-c2ccc(-c3nc4ccccc4s3)cc21 [Chemical Formula 2-6]
- average emission ratio F2/F1 (rat colon tissue; mucosa (90-150 μm)): 0.82±0.07
- average emission ratio F2/F1 (rat colon tissue; submucosa (151-170 μm)): 0.67±0.07
